# Reference: PMC8379256, “A xanthene derivative, DS20060511, attenuates glucose intolerance by inducing skeletal muscle-specific GLUT4 translocation in mice” (Communications Biology, 2021)
# “And” between values parts separate entries of the source, which are not always exact repeats. Identical values can stand only once.
# What was measured:
# [1] = tested on: mouse liver microsomal fraction; assay: Metabolic stability in mouse liver microsomes; format: in vitro ADME; conditions: after 1 h incubation, 1 μM
# Experimental: C57BL/6 mice that had been denied access to food overnight received the indicated oral dose of DS20060511, and blood samples were collected from the tail vein at the indicated timepoints. Plasma samples for quantitation of DS20060511 were prepared by centrifugation. Another group of mice received oral administration DS20060511 (30 mg kg^−1) and euthanized 75 min later. The soleus and gastrocnemius muscles, heart, and inguinal WAT were removed and homogenized in water (5 vol.) for quantitation of the drug concentrations. Plasma samples and tissue homogenates were analyzed by LC-MS/MS (Nexera MP System, SHIMADZU, Kyoto, Japan; API4000 System, SCIEX, Framingham, MA). The tissue concentrations of the compound were calculated by assuming the volume of 1 g of tissue is 1 mL. Evaluation of the metabolic stability of the compound to mouse and human cytochrome P450 (CYP) was conducted as follows. […] The results were expressed as the amount of compound remaining (expressed as a percentage), based on the ratio of the relative area to that in the control (without reaction).
# C57BL/6 mice = assay: Indirect calorimetry and exercise endurance under stepwise treadmill running; format: in vivo, mouse; conditions: for Fat oxodation, sum over interval / Gluocse oxdation, sum over interval / Fat oxodation / Gluocse oxdation: individual mice 1-7
# Experimental: The mice were acclimatized to the treadmill by allowing them to run at 10 m min^−1 for 10 min on the day before the test. On the day of the test, the mice received oral administration of 30 mg kg^−1 of DS20060511 or vehicle 15 min before they were made to run. The treadmill was started at a velocity of 10 m min^−1, with the speed increased stepwise by 2 m min^−1 every 3 min, to assess the exercise endurance capacity as described previously. Measurements of the oxygen consumption (VO2) and exhaled carbon dioxide (VCO2) under treadmill running were conducted with the ARCO-2000 magnetic-type mass spectrometric calorimeter (ARCO System, Kashiwa, Japan) connected to the treadmill chamber (MB-2000, ARCO System). The RER was calculated as the VCO2/VO2 ratio and the substrate utilization rates were calculated using Frayn’s formula[51]: rate of glucose oxidation = 4.585VCO2 − 3.226VO2; rate of fat oxidation = 1.695VO2 − 1.701VCO2. The exercise endurance capacity under treadmill running was determined by measuring the time from the start to the time until the mice ceased to run because of exhaustion, which was defined as remaining on the shocker plate for more than 10 sec. Immediately after the exercise, the blood glucose and lactate levels were measured using Glutest Every and Lactate Pro2 (ARKRAY, Kyoto, Japan), respectively, in blood samples collected from the tail vein.
# [2] = 30 mg kg−1 po vs vehicle, treadmill running
smiles,measurement,setting,value
COc1ccc2c(C)c(C(=O)O)ccc2c1C1C2=C(CC(C)(C)CC2=O)OC2=C1C(=O)CC(C)(C)C2 [DS20060511],compound remaining,[1],89%
same,blood lactate levels after exercise,C57BL/6 mice; 30 mg kg−1 po vs vehicle,comparable between the two groups
same,exercise endurance capacity,"C57BL/6 mice; 30 mg kg−1 po vs vehicle, stepwise treadmill",comparable between the two groups
same,estimated glucose oxidation,C57BL/6 mice; [2],significantly higher
same,fat oxidation,C57BL/6 mice; [2],significantly lower
same,respiratory exchange ratio (RER),C57BL/6 mice; [2],relatively higher
same,blood glucose levels after exercise,"C57BL/6 mice; 30 mg kg−1 po, after treadmill running",decreased significantly after exercise
same,"Fat oxodation, sum over interval","C57BL/6 mice; 30 mg/kg, 0-10 min",427.8 mg/min/kg and 293.6 mg/min/kg and 420.7 mg/min/kg and 305.9 mg/min/kg and 318.6 mg/min/kg and 347.3 mg/min/kg and 349.7 mg/min/kg
same,"Gluocse oxdation, sum over interval","C57BL/6 mice; 30 mg/kg, 0-10 min",257.7 mg/min/kg and 558.0 mg/min/kg and 414.2 mg/min/kg and 313.5 mg/min/kg and 385.3 mg/min/kg and 424.4 mg/min/kg and 413.9 mg/min/kg
same,"Fat oxodation, sum over interval","C57BL/6 mice; 30 mg/kg, 10-20 min",395.5 mg/min/kg and 242.6 mg/min/kg and 385.0 mg/min/kg and 272.2 mg/min/kg and 293.7 mg/min/kg and 348.5 mg/min/kg and 252.4 mg/min/kg
same,"Gluocse oxdation, sum over interval","C57BL/6 mice; 30 mg/kg, 10-20 min",391.9 mg/min/kg and 729.7 mg/min/kg and 425.7 mg/min/kg and 359.9 mg/min/kg and 949.6 mg/min/kg and 631.1 mg/min/kg and 663.2 mg/min/kg
same,"Fat oxodation, sum over interval","C57BL/6 mice; 30 mg/kg, 20-30 min",322.9 mg/min/kg and 234.0 mg/min/kg and 346.7 mg/min/kg and 272.4 mg/min/kg and 262.3 mg/min/kg and 313.5 mg/min/kg and 371.5 mg/min/kg
same,"Gluocse oxdation, sum over interval","C57BL/6 mice; 30 mg/kg, 20-30 min",572.7 mg/min/kg and 770.3 mg/min/kg and 804.1 mg/min/kg and 468.4 mg/min/kg and 807.5 mg/min/kg and 860.4 mg/min/kg and 944.3 mg/min/kg
same,Fat oxodation,"C57BL/6 mice; 30 mg/kg, 2 min",49.1 mg/min/kg and 32.5 mg/min/kg and 45.5 mg/min/kg and 29.3 mg/min/kg and 25.5 mg/min/kg and 31.7 mg/min/kg and 38.3 mg/min/kg
same,Gluocse oxdation,"C57BL/6 mice; 30 mg/kg, 2 min",22.8 mg/min/kg and 54.5 mg/min/kg and 47.8 mg/min/kg and 35.8 mg/min/kg and 26.2 mg/min/kg and 31.5 mg/min/kg and 33.5 mg/min/kg
same,Fat oxodation,"C57BL/6 mice; 30 mg/kg, 3 min",47.1 mg/min/kg and 30.9 mg/min/kg and 42.8 mg/min/kg and 30.0 mg/min/kg (2×) and 34.1 mg/min/kg and 36.3 mg/min/kg
same,Gluocse oxdation,"C57BL/6 mice; 30 mg/kg, 3 min",23.3 mg/min/kg and 55.7 mg/min/kg and 37.4 mg/min/kg and 36.0 mg/min/kg and 29.4 mg/min/kg and 34.4 mg/min/kg and 37.0 mg/min/kg
same,Fat oxodation,"C57BL/6 mice; 30 mg/kg, 4 min",45.2 mg/min/kg and 28.8 mg/min/kg and 42.6 mg/min/kg and 34.0 mg/min/kg and 60.9 mg/min/kg and 33.7 mg/min/kg and 35.2 mg/min/kg
same,Gluocse oxdation,"C57BL/6 mice; 30 mg/kg, 4 min",24.4 mg/min/kg and 56.1 mg/min/kg and 36.3 mg/min/kg and 34.1 mg/min/kg and 30.0 mg/min/kg and 35.7 mg/min/kg and 43.6 mg/min/kg
same,Fat oxodation,"C57BL/6 mice; 30 mg/kg, 5 min",42.0 mg/min/kg (2×) and 29.8 mg/min/kg and 30.0 mg/min/kg and 28.6 mg/min/kg and 36.6 mg/min/kg and 31.5 mg/min/kg
same,Gluocse oxdation,"C57BL/6 mice; 30 mg/kg, 5 min",25.9 mg/min/kg and 58.5 mg/min/kg and 35.2 mg/min/kg and 29.7 mg/min/kg and 36.7 mg/min/kg and 43.4 mg/min/kg and 40.9 mg/min/kg
same,Fat oxodation,"C57BL/6 mice; 30 mg/kg, 6 min",40.6 mg/min/kg and 28.1 mg/min/kg (2×) and 39.9 mg/min/kg and 29.8 mg/min/kg and 36.7 mg/min/kg and 34.9 mg/min/kg
same,Gluocse oxdation,"C57BL/6 mice; 30 mg/kg, 6 min",27.6 mg/min/kg and 62.3 mg/min/kg and 41.7 mg/min/kg and 27.0 mg/min/kg and 29.5 mg/min/kg and 41.2 mg/min/kg and 41.6 mg/min/kg
same,Fat oxodation,"C57BL/6 mice; 30 mg/kg, 7 min",44.6 mg/min/kg and 27.7 mg/min/kg and 40.8 mg/min/kg and 31.0 mg/min/kg and 29.7 mg/min/kg and 36.4 mg/min/kg and 33.0 mg/min/kg
same,Gluocse oxdation,"C57BL/6 mice; 30 mg/kg, 7 min",25.8 mg/min/kg and 57.6 mg/min/kg and 41.7 mg/min/kg and 27.6 mg/min/kg and 31.8 mg/min/kg and 41.2 mg/min/kg and 41.5 mg/min/kg
same,Fat oxodation,"C57BL/6 mice; 30 mg/kg, 8 min",40.5 mg/min/kg and 29.5 mg/min/kg and 42.0 mg/min/kg and 36.5 mg/min/kg and 31.2 mg/min/kg and 35.1 mg/min/kg and 53.1 mg/min/kg
same,Gluocse oxdation,"C57BL/6 mice; 30 mg/kg, 8 min",25.7 mg/min/kg and 46.1 mg/min/kg and 38.7 mg/min/kg and 30.3 mg/min/kg and 43.2 mg/min/kg and 42.8 mg/min/kg and 44.9 mg/min/kg
same,Fat oxodation,"C57BL/6 mice; 30 mg/kg, 9 min",38.5 mg/min/kg (2×) and 26.8 mg/min/kg and 37.4 mg/min/kg and 31.8 mg/min/kg and 32.4 mg/min/kg and 27.0 mg/min/kg
same,Gluocse oxdation,"C57BL/6 mice; 30 mg/kg, 9 min",33.9 mg/min/kg and 53.4 mg/min/kg and 38.5 mg/min/kg and 22.6 mg/min/kg and 54.7 mg/min/kg and 55.4 mg/min/kg and 48.5 mg/min/kg
same,Fat oxodation,"C57BL/6 mice; 30 mg/kg, 10 min",34.8 mg/min/kg and 27.2 mg/min/kg and 41.0 mg/min/kg and 29.8 mg/min/kg and 30.4 mg/min/kg and 34.2 mg/min/kg and 23.3 mg/min/kg
same,Gluocse oxdation,"C57BL/6 mice; 30 mg/kg, 10 min",30.0 mg/min/kg and 56.7 mg/min/kg and 39.2 mg/min/kg and 35.9 mg/min/kg and 69.2 mg/min/kg and 58.5 mg/min/kg and 43.5 mg/min/kg
same,Fat oxodation,"C57BL/6 mice; 30 mg/kg, 11 min",31.8 mg/min/kg and 26.7 mg/min/kg and 43.5 mg/min/kg and 30.9 mg/min/kg and 23.0 mg/min/kg and 34.9 mg/min/kg and 24.3 mg/min/kg
same,Gluocse oxdation,"C57BL/6 mice; 30 mg/kg, 11 min",26.2 mg/min/kg and 54.7 mg/min/kg and 51.9 mg/min/kg and 29.4 mg/min/kg and 70.2 mg/min/kg and 68.8 mg/min/kg and 48.6 mg/min/kg
same,Fat oxodation,"C57BL/6 mice; 30 mg/kg, 12 min",38.6 mg/min/kg and 27.7 mg/min/kg and 39.9 mg/min/kg and 32.1 mg/min/kg and 28.8 mg/min/kg and 35.4 mg/min/kg and 26.2 mg/min/kg
same,Gluocse oxdation,"C57BL/6 mice; 30 mg/kg, 12 min",31.9 mg/min/kg and 64.6 mg/min/kg and 37.7 mg/min/kg and 26.9 mg/min/kg and 70.4 mg/min/kg and 57.6 mg/min/kg and 47.4 mg/min/kg
same,Fat oxodation,"C57BL/6 mice; 30 mg/kg, 13 min",43.1 mg/min/kg and 20.9 mg/min/kg and 41.6 mg/min/kg and 25.9 mg/min/kg and 29.8 mg/min/kg and 35.1 mg/min/kg and 26.2 mg/min/kg
same,Gluocse oxdation,"C57BL/6 mice; 30 mg/kg, 13 min",26.0 mg/min/kg and 67.8 mg/min/kg and 36.1 mg/min/kg and 27.0 mg/min/kg and 75.8 mg/min/kg and 55.4 mg/min/kg and 71.1 mg/min/kg
same,Fat oxodation,"C57BL/6 mice; 30 mg/kg, 14 min",40.8 mg/min/kg and 24.1 mg/min/kg and 37.9 mg/min/kg and 28.8 mg/min/kg and 31.7 mg/min/kg and 36.1 mg/min/kg and 24.4 mg/min/kg
same,Gluocse oxdation,"C57BL/6 mice; 30 mg/kg, 14 min",35.1 mg/min/kg and 58.5 mg/min/kg and 33.2 mg/min/kg and 25.3 mg/min/kg and 81.8 mg/min/kg and 57.9 mg/min/kg and 62.6 mg/min/kg
same,Fat oxodation,"C57BL/6 mice; 30 mg/kg, 15 min",37.9 mg/min/kg and 23.3 mg/min/kg and 38.6 mg/min/kg and 27.4 mg/min/kg and 30.7 mg/min/kg and 40.7 mg/min/kg and 24.3 mg/min/kg
same,Gluocse oxdation,"C57BL/6 mice; 30 mg/kg, 15 min",36.9 mg/min/kg and 60.6 mg/min/kg and 34.7 mg/min/kg and 16.1 mg/min/kg and 95.7 mg/min/kg and 52.2 mg/min/kg and 66.3 mg/min/kg
same,Fat oxodation,"C57BL/6 mice; 30 mg/kg, 16 min",43.4 mg/min/kg and 24.7 mg/min/kg
same,Gluocse oxdation,"C57BL/6 mice; 30 mg/kg, 16 min",35.4 mg/min/kg and 77.5 mg/min/kg
same,CO2 Production (VCO2),"C57BL/6 mice; DS20060511 30 mg/kg, 2 min, individual mice 1-7, Fig. 5a, 30 mg/kg",92.8 mL/min/kg and 70.8 mL/min/kg and 81.2 mL/min/kg and 81.9 mL/min/kg and 71.5 mL/min/kg and 71.3 mL/min/kg and 73.6 mL/min/kg
